# pIC50: −log10 of the molar value.
# Key:
# NCI-H460 = experiment: Cytotoxicity against human NCI-H460 cells; assay type: functional
# [1] = Cytotoxicity against BALB/c mouse macrophages after 48 hrs by trypan blue dye exclusion method; assay type: cell-based; settings: Macrophage
# K562 = experiment: Cytotoxicity against human K562 cells; assay type: functional
# MCF7 = experiment: Cytotoxicity against human MCF7 cells; assay type: functional
# Trypanosoma cruzi = experiment: Antitrypanosomal activity against Trypanosoma cruzi tulahuen C4 trypomastigotes infected in african green monkey Vero cells assessed as CPRG cleavage after 120 hrs by microplate reader; assay type: functional, organism-based
# [2] = Cytotoxicity against BALB mouse 3T3 cells; assay type: cell-based; settings: BALB 3T3 cells
# [3] = test system: Mycobacterium tuberculosis; experiment: Antitubercular activity against Mycobacterium tuberculosis H37Rv ATCC 27294 after 7 days by microplate alamar blue assay; assay type: functional; settings: H37Rv ATCC 27294, 168 h
# HT-29 = experiment: Cytotoxicity against human HT-29 cells; assay type: functional
# [4] = Selectivity index, ratio of IC50 for african green monkey Vero cells to IC50 for Trypanosoma cruzi tulahuen C4; settings: Vero cells
# Vero = experiment: Cytotoxicity against african green monkey Vero cells after 72 hrs by MTS assay; settings: Chlorocebus sabaeus, Vero, 72 h
# [5] = Selectivity index, ratio of IC50 for african green monkey Vero cells to MIC for Mycobacterium tuberculosis H37Rv ATCC 27294 by microplate alamar blue assay; assay type: functional
# [6] = test system: Mycobacterium tuberculosis; experiment: Antitubercular activity against Mycobacterium tuberculosis H37Rv ATCC 27294 after 7 days by low oxygen recovery assay; assay type: functional; settings: H37Rv ATCC 27294, 168 h
# [7] = Selectivity index, ratio of IC50 for BALB/c mouse macrophages to IC50 for Leishmania amazonensis MHOM/BR/76/LTB-012
# DU-145 = experiment: Cytotoxicity against human DU145 cells; assay type: functional
# M14 = experiment: Cytotoxicity against human M14 cells; assay type: functional
# Leishmania amazonensis [8] = experiment: Antileishmanial activity against Leishmania amazonensis MHOM/BR/76/LTB-012 amastigotes infected BALB/c mouse macrophages after 48 hrs by MTT assay; assay type: functional, organism-based; settings: MHOM/BR/76/LTB-012, 48 h
# Leishmania peruviana = experiment: Antileishmanial activity against Leishmania peruviana MHOM/PE/LCA08 promastigote infected BALB/c mouse macrophages after 48 hrs by Giemsa staining method; assay type: functional, organism-based; settings: MHOM/PE/LCA08, 48 h
# Leishmania amazonensis [9] = experiment: Antileishmanial activity against Leishmania amazonensis Lma CL1 amastigotes infected BALB/c mouse macrophages after 48 hrs by Giemsa staining method; assay type: functional, organism-based; settings: Lma CL1, 48 h
# Leishmania braziliensis = experiment: Antileishmanial activity against Leishmania braziliensis MHOM/PE/PER006 promastigote infected BALB/c mouse macrophages after 48 hrs by Giemsa staining method; assay type: functional, organism-based; settings: MHOM/PE/PER006, 48 h
# [10] = Selectivity index, ratio of IC50 for african green monkey Vero cells to MIC for Mycobacterium tuberculosis H37Rv ATCC 27294 by low oxygen recovery assay; assay type: functional
smiles,measurement,setting,value
FC(F)(F)c1ccccc1/C=N/Nc1ncnc2sc3c(c12)CCCC3,GI50,NCI-H460,5.4 µM
same,pIC50,[1],5.51
same,GI50,K562,1.7 µM
same,GI50,MCF7,4.8 µM
same,pIC50,Trypanosoma cruzi,4.86
same,GI50,[2],15.8 µM
same,MIC,[3],15.7 µM
same,GI50,HT-29,4.5 µM
same,selectivity ratio,[4],0.6
same,pIC50,Vero,5.10
same,Ratio IC50,[5],1.3
same,MIC,[6],15.4 µM
same,Ratio IC50,[7],2.6
same,GI50,DU-145,3.5 µM
same,GI50,M14,6.5 µM
same,pIC50,Leishmania amazonensis [8],5.92
Brc1ccc(/C=N/Nc2ncnc3sc4c(c23)CCCC4)cc1,GI50,NCI-H460,10.5 µM
same,pIC50,[1],5.11
same,GI50,K562,5.7 µM
same,GI50,MCF7,5.9 µM
same,pIC50,Trypanosoma cruzi,4.69
same,pIC50,Leishmania peruviana,< 5.70
same,GI50,[2],17.4 µM
same,pIC50,Leishmania amazonensis [9],< 5.70
same,MIC,[3],> 250 µM
same,GI50,HT-29,12.4 µM
same,selectivity ratio,[4],0.8
same,pIC50,Vero,4.81
same,Ratio IC50,[7],8.8
same,GI50,DU-145,14.6 µM
same,GI50,M14,33.6 µM
same,pIC50,Leishmania braziliensis,< 5.70
same,pIC50,Leishmania amazonensis [8],6.05
C(=N\Nc1ncnc2sc3c(c12)CCCC3)/c1ccco1,GI50,NCI-H460,7.1 µM
same,pIC50,[1],5.62
same,GI50,K562,4 µM
same,GI50,MCF7,1 µM
same,pIC50,Trypanosoma cruzi,4.79
same,GI50,[2],7.8 µM
same,MIC,[3],39.9 µM
same,GI50,HT-29,8.5 µM
same,selectivity ratio,[4],0.6
same,pIC50,Vero,5.00
same,Ratio IC50,[5],1
same,MIC,[6],9.7 µM
same,Ratio IC50,[7],0.6
same,GI50,DU-145,15.6 µM
same,Ratio IC50,[10],4.2
same,GI50,M14,11.1 µM
same,pIC50,Leishmania amazonensis [8],5.38
NNc1ncnc2sc3c(c12)CCCC3,GI50,NCI-H460,9.6 µM
same,pIC50,[1],4.47
same,GI50,K562,11.1 µM
same,GI50,MCF7,9 µM
same,pIC50,Trypanosoma cruzi,4.67
same,GI50,[2],< 4.5 µM
same,MIC,[3],374 µM
same,GI50,HT-29,20.7 µM
same,selectivity ratio,[4],1.9
same,pIC50,Vero,4.39
same,Ratio IC50,[5],0.3
same,Ratio IC50,[7],0.6
same,GI50,DU-145,13.9 µM
same,GI50,M14,24.6 µM
same,pIC50,Leishmania amazonensis [8],4.26
COc1cccc(/C=N/Nc2ncnc3sc4c(c23)CCCC4)c1,GI50,NCI-H460,16.2 µM
same,pIC50,[1],4.79
same,GI50,K562,15.5 µM
same,GI50,MCF7,14.9 µM
same,pIC50,Trypanosoma cruzi,4.77
same,GI50,[2],17.6 µM
same,MIC,[3],119 µM
same,GI50,HT-29,7.4 µM
same,selectivity ratio,[4],0.9
same,pIC50,Vero,4.83
same,Ratio IC50,[5],0.6
same,Ratio IC50,[7],0.5
same,GI50,DU-145,17.7 µM
same,GI50,M14,143 µM
same,pIC50,Leishmania amazonensis [8],4.44
FC(F)(F)c1ccc(/C=N/Nc2ncnc3sc4c(c23)CCCC4)cc1,GI50,NCI-H460,15.3 µM
same,pIC50,[1],5.09
same,GI50,K562,6.6 µM
same,GI50,MCF7,5.4 µM
same,pIC50,Trypanosoma cruzi,4.98
same,GI50,[2],10.8 µM
same,MIC,[3],16.2 µM
same,GI50,HT-29,7 µM
same,selectivity ratio,[4],0.8
same,pIC50,Vero,5.10
same,Ratio IC50,[5],5.5
same,MIC,[6],15.9 µM
same,Ratio IC50,[7],4.1
same,GI50,DU-145,14.8 µM
same,Ratio IC50,[10],5.6
same,GI50,M14,16.9 µM
same,pIC50,Leishmania amazonensis [8],5.70
C(=N\Nc1ncnc2sc3c(c12)CCCC3)/c1ccccc1,GI50,NCI-H460,18.2 µM
same,pIC50,[1],4.55
same,GI50,K562,13.2 µM
same,GI50,MCF7,11.2 µM
same,pIC50,Trypanosoma cruzi,4.84
same,GI50,[2],21.7 µM
same,MIC,[3],75.9 µM
same,GI50,HT-29,12.5 µM
same,selectivity ratio,[4],1.8
same,pIC50,Vero,4.59
same,Ratio IC50,[5],0.5
same,Ratio IC50,[7],0.6
same,GI50,DU-145,20 µM
same,GI50,M14,18 µM
same,pIC50,Leishmania amazonensis [8],4.36
C/C(=N/Nc1ncnc2sc3c(c12)CCCC3)c1ccccc1,GI50,NCI-H460,15.9 µM
same,pIC50,[1],3.80
same,GI50,K562,10.9 µM
same,GI50,MCF7,16.5 µM
same,pIC50,Trypanosoma cruzi,4.86
same,GI50,[2],5.4 µM
same,MIC,[3],72.6 µM
same,GI50,HT-29,21.9 µM
same,selectivity ratio,[4],0.9
same,pIC50,Vero,4.91
same,Ratio IC50,[5],1.4
same,MIC,[6],8.7 µM
same,Ratio IC50,[7],5.6
same,GI50,DU-145,16.1 µM
same,Ratio IC50,[10],11.5
same,GI50,M14,19.8 µM
same,pIC50,Leishmania amazonensis [8],4.55
Oc1ccc(/C=N/Nc2ncnc3sc4c(c23)CCCC4)cc1,GI50,NCI-H460,14.9 µM
same,pIC50,[1],3.75
same,GI50,K562,15.8 µM
same,GI50,MCF7,17 µM
same,pIC50,Trypanosoma cruzi,4.95
same,GI50,[2],6.6 µM
same,MIC,[3],72.1 µM
same,GI50,HT-29,19.5 µM
same,selectivity ratio,[4],1.1
same,pIC50,Vero,4.91
same,Ratio IC50,[5],0.6
same,Ratio IC50,[7],4.3
same,GI50,DU-145,20.8 µM
same,GI50,M14,17.2 µM
same,pIC50,Leishmania amazonensis [8],4.38
COc1ccc(/C=N/Nc2ncnc3sc4c(c23)CCCC4)cc1,GI50,NCI-H460,17.1 µM
same,pIC50,[1],4.19
same,GI50,K562,13.9 µM
same,GI50,MCF7,12.5 µM
same,pIC50,Trypanosoma cruzi,4.80
same,GI50,[2],14.9 µM
same,MIC,[3],71.2 µM
same,GI50,HT-29,17.3 µM
same,selectivity ratio,[4],1.1
same,pIC50,Vero,4.75
same,Ratio IC50,[5],3.2
same,MIC,[6],26.9 µM
same,Ratio IC50,[7],1.3
same,GI50,DU-145,23.1 µM
same,Ratio IC50,[10],8.4
same,GI50,M14,16.3 µM
same,pIC50,Leishmania amazonensis [8],4.32
CC(C)=NNc1ncnc2sc3c(c12)CCCC3,GI50,NCI-H460,9.3 µM
same,pIC50,[1],3.62
same,GI50,K562,13.6 µM
same,GI50,MCF7,12.2 µM
same,pIC50,Trypanosoma cruzi,4.85
same,GI50,[2],> 3.5 µM
same,MIC,[3],240 µM
same,GI50,HT-29,33 µM
same,selectivity ratio,[4],2.7
same,pIC50,Vero,4.42
same,Ratio IC50,[5],0.5
same,Ratio IC50,[7],5.9
same,GI50,DU-145,11.6 µM
same,GI50,M14,23.3 µM
same,pIC50,Leishmania amazonensis [8],4.39
